Test results published in patent US20230355511A1, “BIO[…] AND SOLVENT COMPOSITIONS AND SYSTEMS FOR EXTENDED STORAGE AND […] OF ACTIVE PHARMACEUTICAL INGREDIENTS” (TOLMAR INTERNATIONAL LIMITED, priority 2020, published 2023).

Test: In vitro release of TU, jar technique, 1% CTAB in TRIS buffer pH 8.7, 37° C.
Format: in vitro ADME
Details: FIG. 14, Table 11 formulations, 200 mg depot in 200 mL media
Procedure: The in vitro release profiles of solidifying liquid polymer formulations containing TU were conducted using jar technique method with 1% CTAB surfactant in TRIS buffer, pH 8.7 at 37° C. Depots were made by injecting 200 mg of formulation into 200 mL release media. Samples were then periodically collected and analyzed for released drug content. […] Non-formulated TU with a particle size of 67 μm (i.e., with no polymer) were also analyzed as a reference. Additionally, a 20% TU non-solidifying liquid polymer comprising 30% of a 14.2 kDa PDLCL liquid polymer with 25% NMP and 25% PEG 300 was prepared as a reference.

## CCCCCCCCCCC(=O)O[C@H]1CC[C@H]2[C@@H]3CCC4=CC(=O)CC[C@]4(C)[C@H]3CC[C@]12C [non-formulated TU particles, testosterone undecanoate]
  TU released within the first 7 days: approximately 75%
